Reference: patent publication US20220411362A1, “DITERPENOID COMPOUNDS THAT ACT ON PROTEIN KINASE C (PKC)” (K-Gen, Inc., priority 2019, published 2022)
Where two headings read alike, the source gives them in different places.

How the values were obtained:
[1] = target: T1, C1b domain of human PKCδ (Homo sapiens, UniProt Q05655); assay: Competitive 3H-PDBu binding to C1b domain of PKCδ; details: 3H-PDBu competition
T1 construct: Genes encoding C1b domains of human PKCα, δ, ε, θ, and PKD1 (PKCμ) were synthesized; made in house; host or cells: E. coli BL21(DE3)
T1 sequence (Q05655 230-280 limits assumed): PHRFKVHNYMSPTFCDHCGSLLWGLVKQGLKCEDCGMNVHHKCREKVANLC
Experimental: (§1) Compounds described in this disclosure were tested for binding affinity to C1b domain of PKC isoforms. Compound binding affinity to C1b domain of PKC isoforms was derived from competitive binding assay using radioactive tracer ^3H-PDBu and recombinant GST-C1b or full-length of human PKC proteins based on modified procedures from Methods in Molecular Biology, vol.
(§2) Genes encoding C1b domains of human PKCα, δ, ε, θ, and PKD1 (PKCμ) were synthesized and inserted into pGEX-2TK or pGEX-4T1 vectors for expression and production of GST-C1b proteins in E. coli BL21(DE3) via IPTG induction. The target proteins were purified by glutathione sepharose 4B and followed by ion exchange chromatography if needed to achieve purity >70%. Aliquots of the purified proteins were stored at −80 degree for binding assay (storage buffer: 20 mM Tris pH 8.0, 200 mM NaCl, 10% glycerol, 1 mM DTT).
(§3) The plate was incubated at 37° C. on a shaker at 300 rpm for 10 minutes and then put on ice for 20 minutes. […] The bottom of the filter plate was sealed and 50 μL of MicroScint-20 (PerkinElmer) cocktail was added to each well. ^3H-PDBu trapped in each well was counted using PerkinElmer MicroBeta2 Reader. Data were analyzed using GraphPad Prism5 with the model “log(inhibitor) vs. response-variable slope” to fit the IC50, and then IC50 was transformed to Ki using Cheng-Prusoff equation: Ki=IC50/(1+added radio ligand/Kd). Kd is the binding affinity of each protein preparation to ^3H-PDBu, determined experimentally.

[2] = target: T2, C1b domain of human PKCα (Homo sapiens, UniProt P17252); assay: biochemical; assay type: binding; details: 3H-PDBu competition
T2 construct: Genes encoding C1b domains of human PKCα, δ, ε, θ, and PKD1 (PKCμ) were synthesized; made in house; host or cells: E. coli BL21(DE3)
Experimental: as §1, §2
The plate was incubated at 37° C. on a shaker at 300 rpm for 10 minutes and then put on ice for 20 minutes. […] The bottom of the filter plate was sealed and 50 μL of MicroScint-20 (PerkinElmer) cocktail was added to each well. ^3H-PDBu trapped in each well was counted using PerkinElmer MicroBeta2 Reader. […] Kd is the binding affinity of each protein preparation to ^3H-PDBu, determined experimentally.

[3] = target: T3, C1b domain of human PKD1 (PKCμ) (Homo sapiens, UniProt Q15139); assay: biochemical; assay type: binding
T3 construct: Genes encoding C1b domains of human PKCα, δ, ε, θ, and PKD1 (PKCμ) were synthesized; made in house; host or cells: E. coli BL21(DE3)
T3 sequence (Q15139 270-320 limits assumed): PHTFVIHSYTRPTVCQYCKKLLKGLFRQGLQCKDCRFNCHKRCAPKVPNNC
Experimental: as §1, §2, §3

[4] = system: A549 non-small cell lung cancer cell line; assay: Proliferation of A549 (CellTiter Glo); assay type: cell-based; details: read-out: IC50 μM (A549 Cell Line)
Experimental: The diterpenoid compounds were tested in A549, a non-small cell lung cancer cell line harboring a K-Ras activating mutation. Briefly, A549 cells at a density of 1,000 cells/well were seeded in 96-well plates and incubated at 37° C. for 24 hours. A series of different concentrations of compound stocks (500×) were prepared by 3-fold serial dilution in DMSO. These compounds were further diluted in culture media and then added to cells so that the final DMSO concentration was not exceeding 0.25%. After 96 hours of incubation, 50 μL of CellTiter Glo reagent (Promega) was added to each well and luminescence was measured after 10 minutes using EnVision (PerkinElmer). Luminescence from cells treated with DMSO alone was set as Max and % of inhibition was calculated as follows: Inhibition %=(Max−Sample value)/Max×100. Data was analyzed using XL-fit software (ID Business Solutions Ltd.) and IC50, relative IC50, and % of top inhibition was calculated. Some of the compounds in this disclosure were very potent in blocking proliferation of A549 lung cancer cells at low nM range. In addition, potency of inhibiting A549 proliferation correlated well with its binding affinity to PKCs for this series of compounds. In other words, higher affinity binders had stronger inhibitory effects on A549 proliferation. This further support the notion that activation, rather than inhibition, of certain PKC isoforms is required to block proliferation of cancer cells, some of which may harbor K-Ras mutations. This is in sharp contrast to previous literature and common belief that inhibition of PKC is necessary to block cancer cell growth (Kang, 2014, New Journal of Science, 2014:1-36). Data presented here is in agreement with recent findings that many loss-of-function but not gain-of-function mutations of PKC isoforms have been identified in many human cancers (Antal et al., 2015, Cell, 160:489-502).

Row | Compound | Ki ([1]; Ki PKCδ) [µM] | Ki ([2]; Ki PKCα) [µM] | Ki [3] [µM] | IC50 ([4]; Homo sapiens, A549, 96 h) [µM] | Ki ([1]; read-out: Ki PKCδ) [µM] | Ki ([2]; read-out: Ki PKCα) [µM] | Ki ([3]; read-out: Ki PKD1/PKCμ) [µM] | IC50 ([4]; A549, 96 hours incubation, CellTiter Glo) [µM]
1 | CCCC[C@H](N)C(=O)O[C@@]12C[C@@H](C)[C@@]3(O)[C@@H](C=C(CO)C[C@]4(O)C(=O)C(C)=C[C@@H]34)[C@@H]1C2(C)C [Compound K101-C1317] | 0.001 to 0.03 | 0.8 to 1 | < 0.005 | 0.6 to 1 |  |  |  | 
2 | CC1=C[C@H]2[C@@]3(O)[C@H](C)C[C@]4(OC(=O)CCc5scnc5C)[C@H]([C@@H]3C=C(CO)C[C@]2(O)C1=O)C4(C)C [Compound K101-C1320] | 0.03 to 0.06 | 2 to 4 | 0.001 to 0.03 | 0.2 to 0.6 |  |  |  | 
3 | CC1=C[C@H]2[C@@]3(O)[C@H](C)C[C@]4(OC(=O)CCc5c[nH]c6ncccc56)[C@H]([C@@H]3C=C(CO)C[C@]2(O)C1=O)C4(C)C [Compound K101-C1322] | 0.03 to 0.06 | 0.8 to 1 | 0.005 to 0.01 | 2 to 5 |  |  |  | 
4 | CC1=C[C@H]2[C@@]3(O)[C@H](C)C[C@]4(OC(=O)CCc5cnn(C)c5)[C@H]([C@@H]3C=C(CO)C[C@]2(O)C1=O)C4(C)C [Compound K101-C1323] | 0.2 to 0.4 | > 8 | 0.1 to 0.2 | 2 to 5 |  |  |  | 
5 | CC1=C[C@H]2[C@@]3(O)[C@H](C)C[C@]4(OC(=O)[C@@H](N)CC5CCC5)[C@H]([C@@H]3C=C(CO)C[C@]2(O)C1=O)C4(C)C [Compound K101-C1325] | 0.03 to 0.06 | 4 to 6 | 0.03 to 0.06 | 1 to 2 |  |  |  | 
6 | CC1=C[C@H]2[C@@]3(O)[C@H](C)C[C@]4(OC(=O)[C@@H](N)CCS(C)(=O)=O)[C@H]([C@@H]3C=C(CO)C[C@]2(O)C1=O)C4(C)C [Compound K101-C1326] | 0.4 to 0.8 | > 8 | 0.2 to 0.4 | > 30 |  |  |  | 
7 | CC1=C[C@H]2[C@@]3(O)[C@H](C)C[C@]4(OC(=O)[C@@H](N)CC(C)(C)C)[C@H]([C@@H]3C=C(CO)C[C@]2(O)C1=O)C4(C)C [Compound K101-C1328] | 0.001 to 0.03 | 0.2 to 0.4 | < 0.005 | 0.2 to 0.6 |  |  |  | 
8 | CC1=C[C@H]2[C@@]3(O)[C@H](C)C[C@]4(OC(=O)[C@@H](N)CC5CC5)[C@H]([C@@H]3C=C(CO)C[C@]2(O)C1=O)C4(C)C [Compound K101-C1330] |  | 1 to 2 | 0.03 to 0.06 | 2 to 5 |  |  |  | 
9 | CC1=C[C@H]2[C@@]3(O)[C@H](C)C[C@]4(OC(=O)[C@@H](N)C/C=C/c5ccccc5)[C@H]([C@@H]3C=C(CO)C[C@]2(O)C1=O)C4(C)C [Compound K101-C1331] |  |  |  |  | 0.005 to 0.01 | 0.1 to 0.2 | < 0.005 | 0.06 to 0.1
10 | CC1=C[C@H]2[C@@]3(O)[C@H](C)C[C@]4(OC(=O)[C@@H](N)CC5CCCC5)[C@H]([C@@H]3C=C(CO)C[C@]2(O)C1=O)C4(C)C [Compound K101-C1332] | 0.005 to 0.01 | 0.1 to 0.2 | 0.005 to 0.01 | 0.1 to 0.2 |  |  |  | 
11 | CC1=C[C@H]2[C@@]3(O)[C@H](C)C[C@]4(OC(=O)CCCCCCCCCCC(=O)O)[C@H]([C@@H]3C=C(CO)C[C@]2(O)C1=O)C4(C)C [Compound K101-C1334] | 0.4 to 0.8 | > 8 | 0.03 to 0.06 | 10 to 30 |  |  |  | 
12 | CC1=C[C@H]2[C@@]3(O)[C@H](C)C[C@]4(OC(=O)CCCCCCCCCCCC(=O)O)[C@H]([C@@H]3C=C(CO)C[C@]2(O)C1=O)C4(C)C [Compound K101-C1335] | 0.2 to 0.4 | > 8 |  | 10 to 30 |  |  |  | 
13 | CSCC[C@H](N)C(=O)O[C@@]12C[C@@H](C)[C@@]3(O)[C@@H](C=C(CO)C[C@]4(O)C(=O)C(C)=C[C@@H]34)[C@@H]1C2(C)C [Compound K101-C1338] | 0.1 to 0.2 | 2 to 4 | 0.03 to 0.06 | 5 to 10 |  |  |  | 
